Source: patent US9556135B2, “Amino-dihydrothiazine and amino-dioxido dihydrothiazine compounds as beta-secretase antagonists and methods of use” (Amgen Inc., priority 2012, dated 2017)

System: Abeta 40
Experiment: In vivo inhibition of beta-secretase: Abeta 40 reduction in CSF and brain of the rat
Settings: 10 mpk (unless otherwise noted), after 4 hrs
Description: In Vivo Inhibition of Beta-Secretase
Several animal models, including mouse, rat, dog, and monkey, may be used to screen for inhibition of beta-secretase activity in vivo following administration of a test compound sample. Animals used in this invention can be wild type, transgenic, or gene knockout animals. […] One to twenty-four hours following the administration of compound, animals are sacrificed, and brains as well as cerebrospinal fluid (CSF) and plasma are removed for analysis of A-beta levels and drug or test compound concentrations (Dovey et al., 2001, Journal of Neurochemistry, 76, 173-181) Beginning at time 0, animals are administered by oral gavage, or other means of delivery such as intravenous injection, an inhibitory test compound of up to 100 mg/kg in a standard, conventional formulation, such as 2% hydroxypropyl methylcellulose, 1% Tween80. A separate group of animals receive 2% hydroxypropyl methylcellulose, 1% Tween80 alone, containing no test compound, and serve as a vehicle-control group. At the end of the test period, animals are sacrificed and brain tissues, plasma or cerebrospinal fluid are collected. Brains are either homogenized in 10 volumes (w/v) of 0.2% diethylamine (DEA) in 50 mM NaCl (Best et al., 2005, Journal of Pharmacology and Experimental Therapeutics, 313, 902-908), or in 10 volumes of 0.5% TritonX-100 in Tris-buffered saline (pH at about 7.6). Homogenates are centrifuged at 355,000 g, 4° C. for 30 minutes. CSF or brain supernatants are then analyzed for the presence of A-beta peptide by specific sandwich ELISA assays based on ECL (Electrochemiluminescence) technology. For example, rat Abeta40 is measured using biotinylated-4G8 (Signet) as a capture antibody and Fab40 (an in-house antibody specific to the C-terminal of Abeta40) as a detection antibody.
Actual vehicles used: Oral: 2% HPMC, 1% Tween80, pH 2.2

| SMILES | % reduction of rat CSF levels at 10 pmk [%] | % reduction of rat brain levels at 10 mpk [%] |
| --- | --- | --- |
| COc1cnc2c(Nc3ccc(F)c([C@]4(C)CS(=O)(=O)[C@@](C)(F)C(N)=N4)c3)ncnc2c1 [Example 177, (3R,6R)-5-Amino-6-fluoro-3-(2-fluoro-5-((7-methoxypyrido[3,2-d]pyrimidin-4-yl)amino)phenyl)-3,6-dimethyl-3,6-dihydro-2H-1,4-thiazine 1,1-dioxide] | 37 | 24 |
| CC1(C)C(N)=N[C@](C)(c2cc(Nc3nccc4cc(C#N)cnc34)ccc2F)CS1(=O)=O [Example 48, 8-((3-((3R)-5-amino-3,6,6-trimethyl-1,1-dioxido-3,6-dihydro-2H-1,4-thiazin-3-yl)-4-fluorophenyl)amino)-1,7-naphthyridine-3-carbonitrile] | 79 | 59 |
| COc1cnc2c(Nc3cnc(F)c([C@]4(C)CS(=O)(=O)C(C)(C)C(N)=N4)c3)nccc2n1 [Example 222, N-(5-((3R)-5-amino-3,6,6-trimethyl-1,1-dioxido-3,6-dihydro-2H-1,4-thiazin-3-yl)-6-fluoro-3-pyridinyl)-2-methoxypyrido[3,4-b]pyrazin-5-amine] | 65 | 49 |
| Cc1cc(Cl)cnc1C(=O)Nc1ccc(F)c([C@]2(CF)CS(=O)(=O)C3(CC3)C(N)=N2)c1 [Example 216, (S)—N-(3-(8-amino-6-(fluoromethyl)-4,4-dioxido-4-thia-7-azaspiro[2.5]oct-7-en-6-yl)-4-fluorophenyl)-5-chloro-3-methylpicolinamide] | 57 | 14 |
| Cc1c(C(=O)Nc2ccc(F)c([C@]3(CF)CS(=O)(=O)C(C)(C)C(N)=N3)c2)nc2ccc(Cl)cn12 [Example 158, (S)—N-(3-(5-amino-3-(fluoromethyl)-6,6-dimethyl-1,1-dioxido-3,6-dihydro-2H-1,4-thiazin-3-yl)-4-fluorophenyl)-6-chloro-3-methylimidazo[1,2-a]pyridine-2-carboxamide] | 11 | −5 |
| CC1(C)C(N)=N[C@](CF)(c2cc(Nc3ncc(F)c4cc(Cl)cnc34)ccc2F)CS1(=O)=O [Example 233, N-(3-((3S)-5-amino-3-(fluoromethyl)-6,6-dimethyl-1,1-dioxido-3,6-dihydro-2H-1,4-thiazin-3-yl)-4-fluorophenyl)-3-chloro-5-fluoro-1,7-naphthyridin-8-amine] | 25 | 0 |
| Cc1cc(C#N)cnc1C(=O)Nc1ccc(F)c([C@]2(C)CS(=O)(=O)[C@@](C)(F)C(N)=N2)c1 [Example 324, N-(3-((3R,6R)-5-amino-6-fluoro-3,6-dimethyl-1,1-dioxido-3,6-dihydro-2H-1,4-thiazin-3-yl)-4-fluorophenyl)-5-cyano-3-methyl-2-pyridinecarboxamide] | 44 | 29 |
| Cc1cc(OC(F)F)cnc1C(=O)Nc1ccc(F)c([C@]2(CF)CS(=O)(=O)C3(CCC3)C(N)=N2)c1 [Example 412, N-(3-((7S)-9-amino-7-(fluoromethyl)-5,5-dioxido-5-thia-8-azaspiro[3.5]non-8-en-7-yl)-4-fluorophenyl)-5-(difluoromethoxy)-3-methyl-2-pyridinecarboxamide] | 52 | 33 |
| CC#CCOc1cnc(C(=O)Nc2ccc(F)c([C@]3(C)CS(=O)(=O)[C@@](C)(F)C(N)=N3)c2)cn1 [Example 317, N-(3-((3R,6R)-5-amino-6-fluoro-3,6-dimethyl-1,1-dioxido-3,6-dihydro-2H-1,4-thiazin-3-yl)-4-fluorophenyl)-5-(2-butyn-1-yloxy)-2-pyrazinecarboxamide] | 23 | 0 |
| CC1(C)C(N)=N[C@](C)(c2cc(NC(=O)c3cnc(OCC(F)(F)F)cn3)cnc2F)CS1(=O)=O [Example 402, N-(5-((3R)-5-amino-3,6,6-trimethyl-1,1-dioxido-3,6-dihydro-2H-1,4-thiazin-3-yl)-6-fluoro-3-pyridinyl)-5-(2,2,2-trifluoroethoxy)-2-pyrazinecarboxamide] | 43 | 10 |
| Cc1cc(Cl)cnc1C(=O)Nc1ccc(F)c([C@]2(CF)CS(=O)(=O)C(C)(C)C(N)=N2)c1 [Example 408, N-(3-((3S)-5-amino-3-(fluoromethyl)-6,6-dimethyl-1,1-dioxido-3,6-dihydro-2H-1,4-thiazin-3-yl)-4-fluorophenyl)-5-chloro-3-methyl-2-pyridinecarboxamide] | 62 | 37 |
| CC1(C)C(N)=N[C@](CF)(c2cc(NC(=O)c3ccc(Cl)cn3)ccc2F)CS1(=O)=O [Example 193, (S)—N-(3-(5-amino-3-(fluoromethyl)-6,6-dimethyl-1,1-dioxido-3,6-dihydro-2H-1,4-thiazin-3-yl)-4-fluorophenyl)-5-chloropicolinamide] | 57 | 30 |
| CC1(C)C(N)=N[C@](C)(c2cc(NC(=O)c3ncc(Cl)cc3F)ccc2F)C(F)S1(=O)=O (stereo partly drawn) [Example 329, N-(3-((3R)-5-amino-2-fluoro-3,6,6-trimethyl-1,1-dioxido-3,6-dihydro-2H-1,4-thiazin-3-yl)-4-fluorophenyl)-5-chloro-3-fluoro-2-pyridinecarboxamide] | 27 | 20 |
| CC1(C)C(N)=N[C@](CF)(c2cc(Nc3ncnc4cc(C#N)cnc34)ccc2F)CS1(=O)=O [Example 236, 4-((3-((3S)-5-amino-3-(fluoromethyl)-6,6-dimethyl-1,1-dioxido-3,6-dihydro-2H-1,4-thiazin-3-yl)-4-fluorophenyl)amino)pyrido[3,2-d]pyrimidine-7-carbonitrile] | 35 | 1 |
| C[C@]1(c2cc(NC(=O)c3ccc(Cl)cn3)ccc2F)N=C(N)C2(CCC2)S(=O)(=O)[C@@H]1F [Example 131, N-(3-((6S,7R)-9-amino-6-fluoro-7-methyl-5,5-dioxido-5-thia-8-azaspiro[3.5]non-8-en-7-yl)-4-fluorophenyl)-5-chloropicolinamide] | 10 | −18 |
| COCc1cc(Cl)cnc1C(=O)Nc1ccc(F)c([C@]2(CF)CS(=O)(=O)C(C)(C)C(N)=N2)c1 [Example 458, N-(3-((3S)-5-amino-3-(fluoromethyl)-6,6-dimethyl-1,1-dioxido-3,6-dihydro-2H-1,4-thiazin-3-yl)-4-fluorophenyl)-5-chloro-3-(methoxymethyl)-2-pyridinecarboxamide] | 35 | 8 |
